“And” between values parts separate entries of the source, which are not always exact repeats. Equal values may be shown once. Inconclusive results and toxic doses are left out.
Test system: L1210 leukemia ip in BDF1 mice, survival T/C
Assay: NCI In Vivo Anticancer Drug Screen. Data for tumor model L1210 Leukemia (intraperitoneal) in B6D2F1 (BDF1) mice
Conditions: endpoint: mean survival time, higher = longer survival
Outline: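 Ratio derived from survival: compound-dosed mice over vehicle-dosed mice, all bearing a transplantable tumor.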

[1] = dose: 100.0 mg/kg/injection, schedule: Q01DX001 (ip), vehicle: carboxymethylcellulose (CMC)
[2] = dose: 200.0 mg/kg/injection, schedule: Q01DX001 (ip), vehicle: carboxymethylcellulose (CMC)
[3] = dose: 100.0 mg/kg/injection, schedule: Q01DX001 (ip), vehicle: other
[4] = dose: 25.0 mg/kg/injection, schedule: Q04DX002 (ip), vehicle: saline with Tween-80
[5] = dose: 50.0 mg/kg/injection, schedule: Q04DX002 (ip), vehicle: saline with Tween-80
[6] = dose: 100.0 mg/kg/injection, schedule: Q04DX002 (ip), vehicle: saline with Tween-80
[7] = dose: 200.0 mg/kg/injection, schedule: Q04DX002 (ip), vehicle: saline with Tween-80
[8] = dose: 100.0 mg/kg/injection, schedule: Q04DX003 (ip), vehicle: saline with Tween-80
[9] = dose: 200.0 mg/kg/injection, schedule: Q04DX003 (ip), vehicle: saline with Tween-80
[10] = dose: 400.0 mg/kg/injection, schedule: Q04DX003 (ip), vehicle: saline with Tween-80
[11] = dose: 100.0 mg/kg/injection, schedule: Q01DX009 (ip), vehicle: saline with Tween-80
[12] = dose: 200.0 mg/kg/injection, schedule: Q01DX009 (ip), vehicle: saline with Tween-80

With `O=C(Nc1cc([N+](=O)[O-])ccc1O)Nc1cc(C(F)(F)F)ccc1Cl` the T/C [1] was 90 % of control, the T/C (dose: 100.0 mg/kg/injection, schedule: Q01DX009 (ip), vehicle: carboxymethylcellulose (CMC)) was 95 % of control and 103 % of control and the T/C (dose: 100.0 mg/kg/injection, schedule: Q04DX002 (ip), vehicle: carboxymethylcellulose (CMC)) was 97 % of control and 101 % of control. The T/C (dose: 100.0 mg/kg/injection, schedule: Q04DX003 (ip), vehicle: carboxymethylcellulose (CMC)) was 94 % of control, the T/C [2] was 93 % of control and the T/C (dose: 200.0 mg/kg/injection, schedule: Q01DX009 (ip), vehicle: carboxymethylcellulose (CMC)) was 93 % of control and 95 % of control. The T/C (dose: 200.0 mg/kg/injection, schedule: Q04DX002 (ip), vehicle: carboxymethylcellulose (CMC)) was 93 % of control and 97 % of control, the T/C (dose: 200.0 mg/kg/injection, schedule: Q04DX003 (ip), vehicle: carboxymethylcellulose (CMC)) was 92 % of control and the T/C (dose: 400.0 mg/kg/injection, schedule: Q01DX001 (ip), vehicle: carboxymethylcellulose (CMC)) was 92 % of control. For the same compound, the T/C (dose: 400.0 mg/kg/injection, schedule: Q01DX009 (ip), vehicle: carboxymethylcellulose (CMC)) was 92 % of control and 93 % of control, the T/C (dose: 400.0 mg/kg/injection, schedule: Q04DX002 (ip), vehicle: carboxymethylcellulose (CMC)) was 92 % of control and 90 % of control and the T/C (dose: 400.0 mg/kg/injection, schedule: Q04DX003 (ip), vehicle: carboxymethylcellulose (CMC)) was 97 % of control.
For `NC(CO)C(=O)O.[Cl-].[Cl-].[Cl-].[Cl-].[Pt+2]` (configuration not stated), the T/C (dose: 12.5 mg/kg/injection, schedule: Q01DX009 (ip), vehicle: saline) was 114 % of control and 117 % of control, the T/C (dose: 25.0 mg/kg/injection, schedule: Q01DX009 (ip), vehicle: saline) was 122 % of control and the T/C (dose: 50.0 mg/kg/injection, schedule: Q01DX009 (ip), vehicle: saline) was 119 % of control.
`CS(=O)(=O)OCCN(CCOS(C)(=O)=O)c1ccccc1` was tested, and the T/C [3] was 100 % of control.
With `CON(C)C(=O)N1c2ccccc2Sc2ccccc21` the T/C [4] was 88 % of control, the T/C [5] was 95 % of control and the T/C [6] was 103 % of control. For the same compound, the T/C [7] was 95 % of control.
For `CN(C)/C=N\N(c1ccccc1)c1ccccc1`, the T/C [6] was 106 % of control and the T/C [7] was 98 % of control.
With `Cc1ccc(Nc2n[nH]c(=S)s2)cc1F` the T/C (dose: 75.0 mg/kg/injection, schedule: Q01DX001 (ip), vehicle: other) was 100 % of control, the T/C (dose: 150.0 mg/kg/injection, schedule: Q01DX001 (ip), vehicle: other) was 100 % of control and the T/C (dose: 300.0 mg/kg/injection, schedule: Q01DX001 (ip), vehicle: other) was 100 % of control.
For `CC12CCC3c4ccc(Oc5ccc(N)cc5)cc4CCC3C1CCC2=O` (configuration not stated), the T/C (dose: 100.0 mg/kg/injection, schedule: Q01DX001 (sc), vehicle: steriod suspending solution) was 101 % of control, the T/C (dose: 200.0 mg/kg/injection, schedule: Q01DX001 (sc), vehicle: steriod suspending solution) was 95 % of control and the T/C (dose: 400.0 mg/kg/injection, schedule: Q01DX001 (sc), vehicle: steriod suspending solution) was 101 % of control.
For `Cc1ccc(NC2=CC(=O)C(=O)c3ccccc32)cc1`, the T/C [3] was 103 % of control, the T/C (dose: 200.0 mg/kg/injection, schedule: Q01DX001 (ip), vehicle: other) was 98 % of control and the T/C (dose: 400.0 mg/kg/injection, schedule: Q01DX001 (ip), vehicle: other) was 92 % of control.
In the case of `CC(=O)c1cccc(NC(=O)Nc2cccc(C)n2)c1`, the T/C (dose: 100.0 mg/kg/injection, schedule: Q01DX009 (ip), vehicle: Klucel (hydroxypropylcellulose) (HPC)) is reported as 106 % of control, the T/C (dose: 200.0 mg/kg/injection, schedule: Q01DX009 (ip), vehicle: Klucel (hydroxypropylcellulose) (HPC)) is reported as 102 % of control and the T/C (dose: 400.0 mg/kg/injection, schedule: Q01DX009 (ip), vehicle: Klucel (hydroxypropylcellulose) (HPC)) is reported as 101 % of control.
`CCCCCCCC/C=C\CCCCCCCCNP(=O)(OC)OC` was tested, and the T/C [4] was 96 % of control, the T/C [5] was 92 % of control and the T/C [6] was 101 % of control and 92 % of control.
`CNc1ccc(/C=N/CCl)cc1` was tested, and the T/C [8] was 92 % of control, the T/C [9] was 91 % of control and the T/C [10] was 96 % of control.
`CCCn1cnc2c(=S)nc(N)[nH]c21` was tested, and the T/C (dose: 0.94 mg/kg/injection, schedule: Q01DX Z (ip), vehicle: methylcellulose (MC)) was 105 % of control, the T/C (dose: 1.88 mg/kg/injection, schedule: Q01DX Z (ip), vehicle: methylcellulose (MC)) was 122 % of control and the T/C (dose: 3.3 mg/kg/injection, schedule: Q01DX Z (ip), vehicle: methylcellulose (MC)) was 121 % of control. The T/C (dose: 3.75 mg/kg/injection, schedule: Q01DX Z (ip), vehicle: methylcellulose (MC)) was 108 % of control, the T/C (dose: 5.0 mg/kg/injection, schedule: Q01DX Z (ip), vehicle: methylcellulose (MC)) was 152 % of control and the T/C (dose: 7.5 mg/kg/injection, schedule: Q01DX Z (ip), vehicle: methylcellulose (MC)) was 101 % of control. For the same compound, the T/C (dose: 15.0 mg/kg/injection, schedule: Q01DX Z (ip), vehicle: methylcellulose (MC)) was 105 % of control.
`Nc1ncc(-c2ccc(Br)cc2)s1` was tested, and the T/C (dose: 12.5 mg/kg/injection, schedule: Q01DX005 (ip), vehicle: Klucel (hydroxypropylcellulose) (HPC)) was 100 % of control, the T/C (dose: 12.5 mg/kg/injection, schedule: Q01DX009 (ip), vehicle: Klucel (hydroxypropylcellulose) (HPC)) was 105 % of control and the T/C (dose: 25.0 mg/kg/injection, schedule: Q01DX005 (ip), vehicle: Klucel (hydroxypropylcellulose) (HPC)) was 107 % of control. The T/C (dose: 25.0 mg/kg/injection, schedule: Q01DX009 (ip), vehicle: Klucel (hydroxypropylcellulose) (HPC)) was 97 % of control, the T/C (dose: 50.0 mg/kg/injection, schedule: Q01DX005 (ip), vehicle: Klucel (hydroxypropylcellulose) (HPC)) was 91 % of control and the T/C (dose: 50.0 mg/kg/injection, schedule: Q01DX009 (ip), vehicle: Klucel (hydroxypropylcellulose) (HPC)) was 97 % of control. For the same compound, the T/C (dose: 75.0 mg/kg/injection, schedule: Q01DX009 (ip), vehicle: Klucel (hydroxypropylcellulose) (HPC)) was 97 % of control, the T/C (dose: 100.0 mg/kg/injection, schedule: Q04DX002 (ip), vehicle: Klucel (hydroxypropylcellulose) (HPC)) was 102 % of control and the T/C (dose: 115.0 mg/kg/injection, schedule: Q01DX009 (ip), vehicle: Klucel (hydroxypropylcellulose) (HPC)) was 92 % of control. The T/C (dose: 170.0 mg/kg/injection, schedule: Q01DX009 (ip), vehicle: Klucel (hydroxypropylcellulose) (HPC)) was 116 % of control, the T/C (dose: 200.0 mg/kg/injection, schedule: Q04DX002 (ip), vehicle: Klucel (hydroxypropylcellulose) (HPC)) was 102 % of control and the T/C (dose: 400.0 mg/kg/injection, schedule: Q04DX002 (ip), vehicle: Klucel (hydroxypropylcellulose) (HPC)) was 88 % of control.
With `COc1ccc(OC)c(N=C2C(=O)Nc3ccc(Br)cc32)c1` the T/C (dose: 100.0 mg/kg/injection, schedule: Q01DX001 (ip), vehicle: saline with Tween-80) was 92 % of control, the T/C [11] was 100 % of control and the T/C [6] was 108 % of control and 113 % of control. The T/C [8] was 101 % of control, the T/C (dose: 200.0 mg/kg/injection, schedule: Q01DX001 (ip), vehicle: saline with Tween-80) was 88 % of control and the T/C [12] was 94 % of control and 100 % of control. For the same compound, the T/C [7] was 95 % of control and 97 % of control, the T/C [9] was 93 % of control and the T/C (dose: 400.0 mg/kg/injection, schedule: Q01DX001 (ip), vehicle: saline with Tween-80) was 90 % of control. For the same compound, the T/C (dose: 400.0 mg/kg/injection, schedule: Q01DX009 (ip), vehicle: saline with Tween-80) was 101 % of control and 92 % of control, the T/C (dose: 400.0 mg/kg/injection, schedule: Q04DX002 (ip), vehicle: saline with Tween-80) was 88 % of control and 89 % of control and the T/C [10] was 88 % of control.
For `S=C(Cc1ccccc1)NC1CCCCC1`, the T/C (dose: 100.0 mg/kg/injection, schedule: Q04DX003 (ip), vehicle: Klucel (hydroxypropylcellulose) (HPC)) was 103 % of control, the T/C (dose: 200.0 mg/kg/injection, schedule: Q04DX003 (ip), vehicle: Klucel (hydroxypropylcellulose) (HPC)) was 101 % of control and the T/C (dose: 400.0 mg/kg/injection, schedule: Q04DX003 (ip), vehicle: Klucel (hydroxypropylcellulose) (HPC)) was 95 % of control.
With `Cc1ccc(S(=O)(=O)Nc2ccc(Nc3ccccc3)cc2)cc1` the T/C (dose: 50.0 mg/kg/injection, schedule: Q01DX009 (ip), vehicle: saline with Tween-80) was 94 % of control, the T/C [11] was 94 % of control and the T/C [12] was 102 % of control.
`Cc1cccc(/C=N/N(C)C(N)=S)n1` was tested, and the T/C [1] was 102 % of control and the T/C [2] was 106 % of control.
With `O=C1C2=C(c3ccccc31)C1c3ccccc3C(=O)C1(c1ccccc1)c1ccccc12` (configuration not stated) the T/C (dose: 100.0 mg/kg/injection, schedule: Q01DX001 (ip), vehicle: saline) was 105 % of control, the T/C (dose: 200.0 mg/kg/injection, schedule: Q01DX001 (ip), vehicle: saline) was 97 % of control and the T/C (dose: 400.0 mg/kg/injection, schedule: Q01DX001 (ip), vehicle: saline) was 92 % of control.

From PubChem BioAssay AID248 (DTP/NCI, 2004)
